Laboratory results reported in US4593019A, “N^6 -tricyclic adenosines” (Warner-Lambert Company, priority 1984, dated 1986).

Assays:
A1 receptor = biological target: T1, A1 receptor (Rattus norvegicus, UniProt P25099); assay: Adenosine Receptor Binding - A1 Receptor Affinity (RBA1), [3H]-CHA displacement; conditions: 1.0 nM [3H]-CHA, rat brain membranes, pH 7.7, 25° C., 1 h; read-out: RBA-1 IC50 (adenosine A1 receptor affinity)
T1 construct: Whole brain minus cerebellum and brainstem from male Long Evans rats; from tissue; host or cells: rat whole brain minus cerebellum and brainstem (membranes)
T1 sequence (P25099 1-326): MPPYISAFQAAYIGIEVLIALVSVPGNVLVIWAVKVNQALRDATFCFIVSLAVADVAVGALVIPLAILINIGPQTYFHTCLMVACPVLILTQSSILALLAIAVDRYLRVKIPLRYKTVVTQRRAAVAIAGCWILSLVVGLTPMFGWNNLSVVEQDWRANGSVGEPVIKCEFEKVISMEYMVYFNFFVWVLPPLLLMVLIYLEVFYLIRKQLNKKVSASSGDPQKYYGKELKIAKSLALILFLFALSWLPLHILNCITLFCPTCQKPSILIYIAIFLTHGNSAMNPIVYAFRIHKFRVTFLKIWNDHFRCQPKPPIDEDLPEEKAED
Method: The supernatant was discarded, and the pellet was resuspended and centrifuged as before. […] Incubation volume was 2 ml. […] The radio-labeled ligand retained on the filter was measured by liquid scintillation spectrophotometry after shaking the filters for one hour or longer on a mechanical shaker in 10 ml of Beckman Ready-Solv HP scintillation cocktail. […] The maximal number of binding sites (Bmax) was calculated from the Scatchard plot.

[1] = Mouse Activity and Screen Test Procedure (MAST): inhibition of spontaneous locomotion; type: in vivo, mouse (male Swiss-Webster); conditions: one hour prior to testing, accumulated over one hour
Method: (§1) Nine unfasted Swiss-Webster male mice weighing 20-30 g are equally divided into three groups for each drug dose to be tested. That is, data for each dose level was generated by three separate groups of three mice each.
(§2) A minimum of three dose levels (10, 30, and 100 mg/kg) are tested for each drug. Treatments are administered intraperitoneally one hour prior to testing. All dosages are calculated as parent compound and given in volumes of 10 ml/kg. Compounds are dissolved or suspended in 0.2% Methocel. Control animals are injected with Methocel.
A two part testing procedure is started one hour postinjection. […] Briefly this test consists of placing mice on individual wire screens which are then rotated 180 degrees at the start of a 60 second observation period. The number of mice falling off the inverted screen is recorded.
The actophotometer consists of a cylindrical chamber whose center is occupied by another cylinder which contains the illumination for six photocells located on the perimeter of the chamber. Six light-beam interruptions equal one count. Locomotor activity is recorded by computer at ten minute intervals for 60 minutes.
The data obtained from the screen test are expressed as percent of mice falling off the screen. Data derived from locomotor activity of drug treated mice are compared to the activity of vehicle treated animals and are expressed as percent inhibition of spontaneous locomotion. All percentages reported for inhibition of locomotion (LI) are based upon data accumulated for one hour. […] An overall dose rating is obtained by the following criteria:
LAD refers to the lowest dose at which an A rating is achieved. […] The compounds are identified in the examples.

A2 receptor = biological target: T2, A2 receptor (Rattus norvegicus, UniProt P30543); assay: Adenosine Receptor Binding - A2 Receptor Affinity (RBA2), [3H]NECA displacement; conditions: 4 nM [3H]NECA, 50 nM N6-cyclopentyladenosine, rat striatal membranes, 25° C., 60 min; read-out: RBA-2 IC50 (adenosine A2 receptor affinity)
T2 construct: 5 mg original tissue weight of rat weight of rat striatal membranes; tissue Pel-Freez (Rogers, Ark.); host or cells: rat striatum (membranes)
Method: Adenosine Receptor Binding--A2 Receptor Affinity (RBA2)
Brains from 200-500 g mixed sex Sprague-Dawley rats were purchased from Pel-Freez (Rogers, Ark.). […] Brains were thawed and then kept on ice while the striata were dissected out. […] The suspension was centrifuged at 50,000 xg for ten minutes, the supernatant discarded, the pellet resuspended in 10 vol ice-cold Tris as above, recentrifuged, resuspended at 1 g/5 ml, and stored in plastic vials at -70° C. […] When needed, tissue was thawed at room temperature, disrupted in a Polytron, and kept on ice until used. […]
Nonspecific binding was defined as binding in the presence of 100 μM N^6 -cyclopentyladenosine, and specific binding was defined as total binding minus nonspecific binding. The IC50 was calculated by weighted nonlinear least squares curve-fitting to the mass-action equation. […]
Weighting factors were calculated under the assumption that the standard deviation was proportional to the predicted value of Y. Nonspecific binding was treated as a very large (infinite) concentration of drug in the computer analysis.

mice = assay: Mouse Activity and Screen Test Procedure (MAST): screen test failure; type: in vivo, mouse (male Swiss-Webster); conditions: one hour postinjection
Source text: The compounds of the invention are new chemical substances which are useful as pharmaceutical agents for the treatment of psychoses. The antipsychotic activity of representative compounds of the invention was established by the Mouse Activity and Screen Test Procedure (MAST) described below.
as §1, §2
A two part testing procedure is started one hour postinjection. First, the screen test (ST) is performed (see Pharmac. Biochem. Behav. 6, 351-353, 1977). Briefly this test consists of placing mice on individual wire screens which are then rotated 180 degrees at the start of a 60 second observation period. The number of mice falling off the inverted screen is recorded.
The data obtained from the screen test are expressed as percent of mice falling off the screen. Data derived from locomotor activity of drug treated mice are compared to the activity of vehicle treated animals and are expressed as percent inhibition of spontaneous locomotion. All percentages reported for inhibition of locomotion (LI) are based upon data accumulated for one hour. Both phases of testing are graded: A=60-100%; C=31-59%; and N=0-30%. An overall dose rating is obtained by the following criteria: […]

[2] = Antihypertensive evaluation (AHP3): direct monitoring of aortic blood pressure and heart rate in conscious rats; type: in vivo; conditions: 10 mg/kg, conscious rat
Method: This test procedure is described in the following paragraphs.
The continuous monitoring of pulsatile blood pressure (BP) from unrestrained conscious rats surgically equipped with polyethylene cannulas was accomplished by means of a computer assisted data capture scheme (CADCS). The basic elements of the methodology are the cannulation procedure and the CADCS.
Cannulation Procedure: Rats were anesthetized with Telazol (1:1 tiletamine HCl and zolazepam HCl); 20-40 mg/kg IM and the descending aorta exposed via a midline incision. Cannulas fabricated from polyethylene tubing were inserted into the aorta via an undersized puncture hole below the renal arteries. The puncture hole was made by a 23 G disposable needle with a section of the aorta clamped off above and below the puncture site. The cannulas, consisting of a PE100 (0.86 mm ID) body and a PE50 (0.58 mm ID) tip, were attached to a trocar, inserted through the psoas muscle, and passed subcutaneously along the midline of the back and externalized between the ears. The cannulas were anchored to the psoas muscle and between the scalulae (3-0 green braided suture). The midline incision was closed in two steps (muscle first, skin second) using continuous over-and over sutures (4-0 chronic). Each rat was then given penicillin 30,000 units subcutaneously (Penicillin G Procaine Sterile Suspension).
The rats were fitted with a harness-spring-swivel assembly designed to protect the cannula and to provide the rat relative freedom of movement. The harnesses were fabricated from nylon hook and loop tape cemented to a metal plate to which spring wires (18-8 stainless steel), were attached to brass swivels. […] While on test, each rat received a continuous slow infusion of heparinized saline solution (approximately […] or 40 units of heparin per 24 hour period) to prevent clot formation. Additional "flushes" of the cannula with heparinized saline were carried out when the aortic pulse pressure (systolic minus diastolic) was less than 25 mm Hg.
CADCS: The pulsatile blood pressure and heart rate of each of 32 rats was monitored every minute by means of two in-laboratory microcomputers communicating directly with a data concentrator computer. The data were first stored on the data concentrator disk and then transferred to a magnetic tape for analysis and report generation by the main research computer. The overall scheme involved modulating the primary signal from the pressure transducer, generating the primary data set of the one-minute values for systolic, diastolic, and mean blood pressures and heart rate by the in-lab microcomputer and the storage, analysis, and report generation by the main reserach computer.
The transducers were connected to analog signal conditioning modules. The modules provided a regulated excitation voltage for the transducers, amplification as required to interface the microprocessors and an active low pass filter to compensate for the pressure wave form distortion produced by the flexible, fluid filled, narrow cannula.
The microcomputers (one for each of two groups of 16 rats) were connected to the input components through the module interface units, an analog-to-digital converter for the pressure wave form signal and the digital inputs for the dose and event marker switches. The microcomputer controlled the sequential acquisition of data from the modular interface units through an internal synchronous time-of-day clock/time base generator. Utilizing the time base generator as a reference, the blood pressure values and the marker switch status for each of the 32 stations were sampled every ten msec. The microcomputer processed each blood pressure sample as it was received to produce "running average" values for heart rate, and mean, systolic and diastolic blood pressures.

T2 sequence (P30543 whole entry): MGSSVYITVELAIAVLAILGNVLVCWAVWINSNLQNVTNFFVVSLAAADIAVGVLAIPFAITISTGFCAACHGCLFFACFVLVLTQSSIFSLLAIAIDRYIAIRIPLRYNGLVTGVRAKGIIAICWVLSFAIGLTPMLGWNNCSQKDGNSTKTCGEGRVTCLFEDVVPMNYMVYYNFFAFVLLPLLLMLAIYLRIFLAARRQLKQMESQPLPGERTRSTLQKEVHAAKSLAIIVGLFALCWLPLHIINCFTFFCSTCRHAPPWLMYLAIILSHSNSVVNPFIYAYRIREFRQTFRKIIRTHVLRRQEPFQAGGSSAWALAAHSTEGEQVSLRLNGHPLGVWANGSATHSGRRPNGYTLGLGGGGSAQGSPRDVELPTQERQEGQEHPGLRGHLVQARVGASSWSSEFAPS

SMILES | IC50 (A1 receptor) [nM] | Inhibition of Mouse Locomotion Activity ([1]; 10 mg/kg i.p.) [%] | Inhibition of Mouse Locomotion Activity ([1]; 30 mg/kg i.p.) [%] | Inhibition of Mouse Locomotion Activity ([1]; 100 mg/kg i.p.) [%] | IC50 (A2 receptor) [nM] | Screen Test Failure (percent of mice falling off the screen) (mice; 10 mg/kg i.p.) [%] | Screen Test Failure (percent of mice falling off the screen) (mice; 30 mg/kg i.p.) [%] | Screen Test Failure (percent of mice falling off the screen) (mice; 100 mg/kg i.p.) [%] | Inhibition of Mouse Locomotion Activity ([1]; 1 mg/kg i.p.) [%] | Inhibition of Mouse Locomotion Activity ([1]; 3 mg/kg i.p.) [%] | HR ↑ (increase in heart rate) ([2]; 1 hour) [%] | MAP ↓ (decrease in mean arterial blood pressure) ([2]; 1 hour) [%] | HR ↑ (increase in heart rate) ([2]; 3 hours) [%] | MAP ↓ (decrease in mean arterial blood pressure) ([2]; 3 hours) [%] | HR ↑ (increase in heart rate) ([2]; 5 hours) [%] | MAP ↓ (decrease in mean arterial blood pressure) ([2]; 5 hours) [%] | HR ↑ (increase in heart rate) ([2]; 7 hours) [%] | MAP ↓ (decrease in mean arterial blood pressure) ([2]; 7 hours) [%] | HR ↑ (increase in heart rate) ([2]; 9 hours) [%] | MAP ↓ (decrease in mean arterial blood pressure) ([2]; 9 hours) [%] | further results
OC[C@H]1O[C@@H](n2cnc3c(NCCC4c5ccccc5-c5ccccc54)ncnc32)[C@H](O)[C@@H]1O [Example 3, N^6 -Fluorenylethyl adenosine] | 435 |  |  |  |  |  |  |  |  |  |  |  |  |  |  |  |  |  |  |  | 
OC[C@H]1O[C@@H](n2cnc3c(NC4c5ccccc5-c5ccccc54)ncnc32)[C@H](O)[C@@H]1O [Example 1] | 8600 | 41 | 60 | 68 | 51000 | 0 | 0 | 0 |  |  |  |  |  |  |  |  |  |  |  |  | 
OC[C@H]1O[C@@H](n2cnc3c(NCC4c5ccccc5-c5ccccc54)ncnc32)[C@H](O)[C@@H]1O [Example 2] |  | 97 | 97 | 91 |  | 44 | 55 | 55 | 56 | 94 | 24 | 32 | 27 | 32 | 20 | 34 | 13 | 28 | 13 | 30 | Screen Test Failure (percent of mice falling off the screen) (mice; 1 mg/kg i.p.): 11%; Screen Test Failure (percent of mice falling off the screen) (mice; 3 mg/kg i.p.): 33%
OC[C@H]1O[C@@H](n2cnc3c(NCC4c5ccccc5Oc5ccccc54)ncnc32)[C@H](O)[C@@H]1O [Example 4, N^6-[Xanthene-9-methylamino]adenosine] | 85 | 72 | 91 | 91 | 65 | 0 | 11 | 44 | -5 | 17 | 16 | 11 | 19 | 4 | 25 | 8 | 15 | 12 | 18 | 8 | Screen Test Failure (percent of mice falling off the screen) (mice; 1 mg/kg i.p.): 0%; Screen Test Failure (percent of mice falling off the screen) (mice; 3 mg/kg i.p.): 0%
